IC50 and viability, T/C data for 5 compounds are collected here from PubChem BioAssay AID1845205 (Molecular Pharmacology Branch, DTP, NCI, 2023).

The subject of the assay is MPNST multicellular tumor spheroids, viability % test/control. In words: Anticancer human tumor MPNST cell line growth inhibition.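 On all read-outs here: spheroids exposed to agents for seven days after three days of growth.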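 On viability, T/C: luminescence signal used as surrogate for viable cell amount.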 Conditions: for viability, T/C: stronger effect = lower value. A digest of the protocol: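 Complex spheroids of malignant cells with endothelial cells and mesenchymal stem cells; agents alone or combined, from near clinical Cmax (or 10 microM if unknown) down in half-log steps, 0.25% DMSO final.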

Where [1] appears, read: curve of first compound, second compound 1 µM.
[2] abbreviates: curve of first compound, second compound 3.16 µM.
[3] abbreviates: curve of first compound, second compound 10 µM.
Setting [4] is: curve of first compound, second compound 31.6 µM.
[5] abbreviates: curve of first compound, second compound 100 µM.

Where “and” joins values, the source holds several entries; their conditions need not be identical. Equal values may be shown once.

A word on the IC50: it is the point on the concentration scale where inhibition reaches its midpoint. As usually defined, the viability, T/C is the ratio of treated to control. For the compound `COc1cc(C)[nH]c(=O)c1CN1CCc2c(Cl)cc(C(OC)C3COC3)c(Cl)c2C1=O` (stereo unspecified) + Cn1nnc2c(C(N)=O)ncn2c1=O, the IC50 runs as follows: under setting [1], above 10000 nM; under setting [2], above 10000 nM; under setting [3], above 10000 nM; under setting [4], above 10000 nM; under setting [5], above 10000 nM. For the same compound, the viability, T/C (second compound 1 µM, first compound 0.0316 µM) was 89.9%; the viability, T/C (second compound 1 µM, first compound 0.1 µM) is 80.4%; the viability, T/C (second compound 1 µM, first compound 0.316 µM) was 78.7%; the viability, T/C (second compound 1 µM, first compound 1 µM) is 88.5%; the viability, T/C (second compound 1 µM, first compound 3.16 µM) was 94.2%; the viability, T/C (second compound 1 µM, first compound 10 µM) was 107%. Further, the viability, T/C runs as follows: (second compound 3.16 µM, first compound 0.0316 µM) 87.7%; (second compound 3.16 µM, first compound 0.1 µM) 84.4%; (second compound 3.16 µM, first compound 0.316 µM) 122%; (second compound 3.16 µM, first compound 1 µM) 97.4%; (second compound 3.16 µM, first compound 3.16 µM) 150%; (second compound 3.16 µM, first compound 10 µM) 95.9%. Besides, the viability, T/C was 81.5% (second compound 10 µM, first compound 0.0316 µM); 106% (second compound 10 µM, first compound 0.1 µM); 101% (second compound 10 µM, first compound 0.316 µM); 97.8% (second compound 10 µM, first compound 1 µM); 99.9% (second compound 10 µM, first compound 3.16 µM); 92.8% (second compound 10 µM, first compound 10 µM). For the same compound, the viability, T/C by setting is: (second compound 31.6 µM, first compound 0.0316 µM) 79.1%; (second compound 31.6 µM, first compound 0.1 µM) 74%; (second compound 31.6 µM, first compound 0.316 µM) 92.5%; (second compound 31.6 µM, first compound 1 µM) 81.7%; (second compound 31.6 µM, first compound 3.16 µM) 103%; (second compound 31.6 µM, first compound 10 µM) 82.7%. The viability, T/C was 84% (second compound 100 µM, first compound 0.0316 µM); 82.7% (second compound 100 µM, first compound 0.1 µM); 70.7% (second compound 100 µM, first compound 0.316 µM); 80.6% (second compound 100 µM, first compound 1 µM); 80.7% (second compound 100 µM, first compound 3.16 µM); 86.5% (second compound 100 µM, first compound 10 µM).

Regarding `Cc1cc(C)c(CNC(=O)c2cc(-c3ccc(CN4CCOCC4)cc3)cc3c2cnn3C2CCCC2)c(=O)[nH]1`, the viability, T/C (compound 0.0316 µM) is 75.2% and 93.7% and 93.8%; the viability, T/C (compound 0.1 µM) was 119% and 109% and 93.5%; the viability, T/C (compound 0.316 µM) is 90.4% and 118% and 91.3%; the viability, T/C (compound 1 µM) is 97.2% and 101% and 92.3%; the viability, T/C (compound 3.16 µM) was 107% and 114% and 98.7%; the viability, T/C (compound 10 µM) was 79.3% and 100% and 107%. For the same compound, the IC50 (curve of compound) was above 10000 nM.

Consider `Cn1ncnc1[C@H]1c2n[nH]c(=O)c3cc(F)cc(c23)N[C@@H]1c1ccc(F)cc1`, for which the viability, T/C (compound 0.00949 µM) was 84.8% and 85.2% and 73.3%; the viability, T/C (compound 0.03 µM) was 105% and 79.8% and 70.5%; the viability, T/C (compound 0.0949 µM) is 91.6% and 74.7% and 66.9%; the viability, T/C (compound 0.3 µM) was 76.3% and 66% and 60.6%; the viability, T/C (compound 0.949 µM) is 67.1% and 53.2% and 46.5%; the viability, T/C (compound 3 µM) was 62.9% and 51.3% and 43.7%. In addition, where the note is “curve of compound”, the IC50 was > 3000 nM and 763 nM.

Turning to `Cc1sc2c(c1C)C(c1ccc(Cl)cc1)=NC(CC(=O)Nc1ccc(O)cc1)c1nnc(C)n1-2` (stereo unspecified) + Cn1nnc2c(C(N)=O)ncn2c1=O, the IC50 by setting is: under setting [1], 1440 nM; under setting [2], 813 nM; under setting [3], 1790 nM; under setting [4], above 3000 nM; under setting [5], 678 nM. Besides, the viability, T/C was 123% (second compound 1 µM, first compound 0.00949 µM); 97.7% (second compound 1 µM, first compound 0.03 µM); 78.7% (second compound 1 µM, first compound 0.0949 µM); 60.5% (second compound 1 µM, first compound 0.3 µM); 51.3% (second compound 1 µM, first compound 0.949 µM); 47.3% (second compound 1 µM, first compound 3 µM). In addition, the viability, T/C by setting is: (second compound 3.16 µM, first compound 0.00949 µM) 96.7%; (second compound 3.16 µM, first compound 0.03 µM) 125%; (second compound 3.16 µM, first compound 0.0949 µM) 92.4%; (second compound 3.16 µM, first compound 0.3 µM) 60.4%; (second compound 3.16 µM, first compound 0.949 µM) 49.7%; (second compound 3.16 µM, first compound 3 µM) 45.8%. The viability, T/C is 102% (second compound 10 µM, first compound 0.00949 µM); 123% (second compound 10 µM, first compound 0.03 µM); 93.8% (second compound 10 µM, first compound 0.0949 µM); 62.7% (second compound 10 µM, first compound 0.3 µM); 50.7% (second compound 10 µM, first compound 0.949 µM); 48.5% (second compound 10 µM, first compound 3 µM). Besides, the viability, T/C was 95.6% (second compound 31.6 µM, first compound 0.00949 µM); 108% (second compound 31.6 µM, first compound 0.03 µM); 91.7% (second compound 31.6 µM, first compound 0.0949 µM); 60% (second compound 31.6 µM, first compound 0.3 µM); 50% (second compound 31.6 µM, first compound 0.949 µM); 51.4% (second compound 31.6 µM, first compound 3 µM). The viability, T/C was 91.5% (second compound 100 µM, first compound 0.00949 µM); 87% (second compound 100 µM, first compound 0.03 µM); 83.2% (second compound 100 µM, first compound 0.0949 µM); 58.6% (second compound 100 µM, first compound 0.3 µM); 47.3% (second compound 100 µM, first compound 0.949 µM); 43.7% (second compound 100 µM, first compound 3 µM).

As for `[2H]c1nc(C)nc([2H])c1-c1cc(NC[C@@H](C)c2cccc3c(C(=O)NC)ccnc23)ncn1`, the viability, T/C reads like this: (compound 0.0316 µM) 96.1% and 83.1% and 86.7%; (compound 0.1 µM) 77.8% and 109% and 75.6%; (compound 0.316 µM) 82.6% and 102% and 90.4%; (compound 1 µM) 101% and 103% and 119%; (compound 3.16 µM) 110% and 104% and 71.3%; (compound 10 µM) 101% and 100% and 67.4%. Besides, the IC50 (curve of compound) was above 10000 nM.
